Laboratory results: patent publication US10364226B2, “Pyridazinone compounds and uses thereof” (priority 2013, dated 2019)

Legend:
EN PA = EN PA (Influenza A virus, UniProt P15659); assay: EN PA FRET Inhibition Assay; format: biochemical; settings: read-out: Potency
[1] = tested on: Influenza strain A549 A/WSN/33 (H1N1); assay: Influenza Antiviral Assay; format: cell-based, Influenza A virus; settings: Influenza A virus, A549, 20 h, neuraminidase fluorescence readout, read-out: % Inhibition

Row | Structure (SMILES) | IC50 (EN PA) | EC50 [1]
1 | O=C(O)c1nn(CC2(c3cc(C(F)(F)F)cc(C(F)(F)F)c3)CCCC2)cc(O)c1=O [Compound 419] | < 0.1 µM | 
2 | CCOC(=O)c1nn(CC2(c3cc(C(F)(F)F)cc(C(F)(F)F)c3)CCCC2)cc(O)c1=O [Compound 420] | 0.1 to 1 µM | 
3 | Cc1cn(C2(Cn3cc(O)c(=O)c(C(=O)O)n3)CCCC2)c2ncccc12 [Compound 425] | 0.1 to 1 µM | 
4 | O=C(NC1CC1)c1nn(CC2(c3cc(C(F)(F)F)cc(C(F)(F)F)c3)CCCC2)cc(O)c1=O [Compound 508] | 0.1 to 1 µM | 
5 | CNC(=O)c1nn(-c2ccccc2-c2ccccc2OC(F)(F)F)cc(O)c1=O [Compound 520] | ≥ 1 µM | 
6 | CNC(=O)c1nn(-c2ccccc2-c2ccc3cc[nH]c3c2)cc(O)c1=O [Compound 521] | ≥ 1 µM | 
7 | CNC(=O)c1nn(-c2ccccc2-c2cc(C)ccc2OC(C)C)cc(O)c1=O [Compound 522] | 0.1 to 1 µM | 
8 | CNC(=O)c1nn(-c2ccccc2N2CCN(C)CC2)cc(O)c1=O [Compound 600, 1,4-dihydro-5-hydroxy-N-methyl-1-(2-(4-methylpiperazin-1-yl)phenyl)-4-oxopyridazine-3-carboxamide] | ≥ 1 µM | 
9 | CNC(=O)c1nn(-c2ccc3c(c2)OCCO3)cc(O)c1=O [Compound 601, 1,4-dihydro-1-(2,3-dihydrobenzo[b][1,4]dioxin-6-yl)-5-hydroxy-N-methyl-4-oxopyridazine-3-carboxamide] | ≥ 1 µM | 
10 | CNC(=O)c1nn(CCc2cccc(C(F)(F)F)c2)cc(O)c1=O [Compound 608] | ≥ 1 µM | 
11 | CCN1CCN(c2ccccc2-n2cc(O)c(=O)c(C(=O)NC)n2)CC1 [Compound 615] | ≥ 1 µM | 
12 | CNC(=O)c1nn(-c2ccccc2N2CCCC(C)(C)C2)cc(O)c1=O [Compound 616] | ≥ 1 µM | 
13 | NC(=O)c1nn(-c2ccccc2S(=O)(=O)c2ccccc2)cc(O)c1=O [Compound 617] | ≥ 1 µM | 
14 | CNC(=O)c1nn(-c2ccccc2-c2ccc3ccn(C)c3c2)cc(O)c1=O [Compound 618] | ≥ 1 µM | 
15 | CNC(=O)c1nn(-c2ccccc2-c2ccc3c(ccn3C)c2)cc(O)c1=O [Compound 620] | ≥ 1 µM | 
16 | CNC(=O)c1nn(CC2(c3ccccc3)CCCC2)cc(O)c1=O [Compound 627] | 0.1 to 1 µM | 
17 | CNC(=O)c1nn(-c2ccccc2N2CCCc3ccccc32)cc(O)c1=O [Compound 628] | ≥ 1 µM | 
18 | CNC(=O)c1nn(-c2ccccc2-c2cc(Cl)cc(OC)c2)cc(O)c1=O [Compound 629] | ≥ 1 µM | 
19 | CNC(=O)c1nn(-c2ccccc2-c2ccccc2OCC(C)C)cc(O)c1=O [Compound 630] | 0.1 to 1 µM | 
20 | CNC(=O)c1nn(-c2ccccc2N2CCc3ccccc32)cc(O)c1=O [Compound 632] | ≥ 1 µM | 
21 | CCOc1cc(C)cc(-c2ccccc2-n2cc(O)c(=O)c(C(=O)NC)n2)c1 [Compound 633] | ≥ 1 µM | 
22 | CNC(=O)c1nn(CCc2cccc3ccccc23)cc(OC(C)=O)c1=O [Compound 636] | ≥ 1 µM | 
23 | CC(NC(=O)c1nn(CC2(c3cccc(C(F)(F)F)c3)CCCC2)cc(O)c1=O)c1ccccc1 (stereo not shown) [Compound 637] |  | < 20 µM
24 | CNC(=O)c1nn(Cc2ccccc2-c2ccc(C(C)(C)C)cc2)cc(O)c1=O [Compound 642] |  | > 100 µM
25 | CNC(=O)c1nn(-c2ccccc2Sc2cccc(Cl)c2)cc(O)c1=O [Compound 643] |  | > 100 µM
26 | CNC(=O)c1nn(CC(Cc2ccccc2)c2cccc(C(F)(F)F)c2)cc(O)c1=O (stereo not shown) [Compound 647] |  | < 20 µM
27 | CNC(=O)c1nn(-c2ccccc2-c2ccc3ccncc3c2)cc(O)c1=O [Compound 651] |  | 20 to 100 µM

Row | Structure (SMILES) | IC50 (EN PA) | EC50 [1]
28 | CNC(=O)c1nn(-c2ccccc2-c2cc(C)cc(OCC3CC3)c2)cc(O)c1=O [Compound 652] |  | > 100 µM
29 | Cc1cc(OCC2CC2)cc(-c2ccccc2-n2cc(O)c(=O)c(C(=O)O)n2)c1 [Compound 653] |  | > 100 µM
30 | CC(C)(C)c1ccc(-c2ccccc2Cn2cc(O)c(=O)c(C(=O)O)n2)cc1 [Compound 657] |  | > 100 µM
31 | CNC(=O)c1nn(C(Cc2ccccc2)C(=O)NC)cc(O)c1=O (stereo not shown) [Compound 667] |  | > 100 µM
32 | CNC(=O)c1nn(C(Cc2ccccc2)C(=O)Nc2ccccc2)cc(O)c1=O (stereo not shown) [Compound 668] |  | > 100 µM
33 | Cc1[nH]c2ccc(CNC(=O)c3nn(CC4(c5cccc(C(F)(F)F)c5)CCCC4)cc(O)c3=O)cc2c1C [Compound 672] |  | < 20 µM
34 | CNC(=O)c1nn(CC2(n3cc(-c4cncnc4)c4cccnc43)CCCC2)cc(O)c1=O [Compound 673] |  | > 100 µM
35 | CNC(=O)c1nn(CC2(c3ccc(OC)cc3)CC2)cc(O)c1=O [Compound 675] |  | > 100 µM
36 | CNC(=O)c1nn(CC2(c3cccc(OC(F)(F)F)c3)CCCC2)cc(O)c1=O [Compound 684] |  | < 20 µM
37 | CNC(=O)c1nn(CC2(c3ccc(C(C)C)cc3)CC2)cc(O)c1=O [Compound 688] |  | < 20 µM
38 | CNC(=O)c1nn(Cc2cc(C(F)(F)F)ccc2-c2ccccc2)cc(O)c1=O [Compound 689] |  | > 100 µM
39 | CNC(=O)c1nn(Cc2cc(C(F)(F)F)ccc2-c2ccc(C(C)(C)C)cc2)cc(O)c1=O [Compound 690] |  | > 100 µM
40 | O=C(NCc1ccccn1)c1nn(CC2(c3ccccc3)CCCC2)cc(O)c1=O [Compound 691] |  | < 20 µM
41 | O=C(Nc1ccc(Oc2ccccc2)cc1)c1nn(CC2(c3ccccc3)CCCC2)cc(O)c1=O [Compound 696] |  | > 100 µM
42 | COc1ccc(NC(=O)c2nn(CC3(c4ccccc4)CCCC3)cc(O)c2=O)cc1 [Compound 697] |  | > 100 µM
43 | O=C(NCc1ccccc1)c1nn(CC2(c3ccccc3)CCCC2)cc(O)c1=O [Compound 698] |  | < 20 µM
44 | O=C(NCc1cccnn1)c1nn(CC2(c3ccccc3)CCCC2)cc(O)c1=O [Compound 699] |  | < 20 µM
45 | CNC(=O)c1nn(CC2(c3cccc(Oc4ccccc4)c3)CCCC2)cc(O)c1=O [Compound 701] | < 0.1 µM | 
46 | CNC(=O)c1nn(CC2(c3cccc(C(C)C)c3)CC2)cc(O)c1=O [Compound 702] |  | < 20 µM
47 | COc1ccc(NC(=O)c2nn(CC3(c4ccccc4)CCCC3)cc(O)c2=O)cc1OC [Compound 705] |  | > 100 µM
48 | CC(C)Oc1ccc(NC(=O)c2nn(CC3(c4ccccc4)CCCC3)cc(O)c2=O)cc1 [Compound 706] |  | > 100 µM
49 | O=C(Nc1ccc(Cl)cc1Cl)c1nn(CC2(c3ccccc3)CCCC2)cc(O)c1=O [Compound 707] |  | < 20 µM
50 | CNC(=O)c1nn(CC2(c3ccc(-c4ccnn4C)cc3)CC2)cc(O)c1=O [Compound 710] |  | > 100 µM
51 | CNC(=O)c1nn(CC2(c3cccc(C4CCCCC4)c3)CCCC2)cc(O)c1=O [Compound 711] |  | < 20 µM
52 | CNC(=O)c1nn(CC2(c3cccc(-c4cn[nH]c4)c3)CC2)cc(O)c1=O [Compound 712] |  | > 100 µM
53 | CNC(=O)c1nn(CC2(c3cccc(-c4ccnn4C)c3)CC2)cc(O)c1=O [Compound 713] |  | > 100 µM
54 | CNC(=O)c1nn(CC2(c3cccc(-c4cn[nH]c4)c3)CCCC2)cc(O)c1=O [Compound 714] |  | > 100 µM

Row | Structure (SMILES) | IC50 (EN PA) | EC50 [1]
55 | O=C(Nc1ccc(Cl)c(C(F)(F)F)c1)c1nn(CC2(c3ccccc3)CCCC2)cc(O)c1=O [Compound 719] |  | > 100 µM
56 | CS(=O)(=O)c1ccc(NC(=O)c2nn(CC3(c4ccccc4)CCCC3)cc(O)c2=O)cc1 [Compound 721] |  | > 100 µM
57 | CNC(=O)c1nn(CC2(c3cccc(-c4ccsc4)c3)CC2)cc(O)c1=O [Compound 724] |  | > 100 µM
58 | CNC(=O)c1nn(CC2(c3cccc(Oc4ccccc4)c3)CCCC2)cc(O)c1=O [Compound 725] |  | < 20 µM
59 | CNC(=O)c1nn(CC2(c3cccc(-c4cnc5ccccc5c4)c3)CC2)cc(O)c1=O [Compound 726] |  | < 20 µM
60 | CNC(=O)c1nn(CC2(c3cccc(-c4cncc(F)c4)c3)CC2)cc(O)c1=O [Compound 727] |  | > 100 µM
61 | CNC(=O)c1nn(CC2(c3ccc(-c4cn[nH]c4)cc3)CC2)cc(O)c1=O [Compound 728] |  | > 100 µM
62 | CNC(=O)c1nn(CC2(c3ccc(C4CCCCC4)cc3)CC2)cc(O)c1=O [Compound 729] |  | > 100 µM
63 | CNC(=O)c1nn(CC2(c3cccc(-c4ccnn4C)c3)CCCC2)cc(O)c1=O [Compound 731] |  | > 100 µM
64 | CNC(=O)c1nn(CC2(c3cccc(-c4ccncc4)c3)CCCC2)cc(O)c1=O [Compound 732] |  | > 100 µM
65 | CNC(=O)c1nn(CC2(c3cccc(-c4ccc(OC)nc4)c3)CCCC2)cc(O)c1=O [Compound 734] |  | > 100 µM
66 | CNC(=O)c1nn(CC2(c3cccc(-c4cnc5ccccc5c4)c3)CCCC2)cc(O)c1=O [Compound 735] |  | > 100 µM
67 | CNC(=O)c1nn(CC2(c3cccc(-c4cncc(F)c4)c3)CCCC2)cc(O)c1=O [Compound 736] |  | > 100 µM
68 | CNC(=O)c1nn(CC2(c3ccc(-c4ccc5c(c4)OCO5)cc3)CC2)cc(O)c1=O [Compound 737] |  | < 20 µM
69 | CNC(=O)c1nn(CC2(c3cccc(-c4ccco4)c3)CC2)cc(O)c1=O [Compound 739] |  | > 100 µM
70 | CNC(=O)c1nn(CC2(c3cccc(-c4ccoc4)c3)CC2)cc(O)c1=O [Compound 744] |  | > 100 µM
71 | CNC(=O)c1nn(CC2(c3cccc(-c4ccco4)c3)CCCC2)cc(O)c1=O [Compound 745] |  | < 20 µM
72 | O=C(NCc1ccc(F)c(Cl)c1)c1nn(CC2(c3ccc(-c4ccccc4)cc3)CCCC2)cc(O)c1=O [Compound 746] |  | > 100 µM
73 | CNC(=O)c1nn(CC2(c3cccc(-c4cnn(C)c4)c3)CC2)cc(O)c1=O [Compound 748] |  | > 100 µM
74 | O=C(NCc1ccc(F)c(Cl)c1)c1nn(CC2(c3cccc(Oc4ccccc4)c3)CCCC2)cc(O)c1=O [Compound 751] |  | > 100 µM
75 | CNC(=O)c1nn(CC2(c3ccc(-c4cncc(F)c4)cc3)CCCC2)cc(O)c1=O [Compound 763] |  | < 20 µM
76 | O=C(NCc1ccc(F)c(Cl)c1)c1nn(CC2(c3cccnc3)CCCC2)cc(O)c1=O [Compound 802] | < 0.1 µM | 
77 | O=C(NCc1ccc(F)c(Cl)c1)c1nn(CC2(c3ccc(Cl)cc3)CCCC2)cc(O)c1=O [Compound 803] | < 0.1 µM | 
78 | O=C(NCc1ccccc1)c1nn(CC2(c3ccc(Cl)cc3)CCCC2)cc(O)c1=O [Compound 804] | < 0.1 µM | 
79 | O=C(NCc1ccc(F)c(Cl)c1)c1nn(CC2(c3ccc(F)c(F)c3)CCCC2)cc(O)c1=O [Compound 805] | < 0.1 µM | 
